According to the NIST ThermoML archive (doi:10.1016/j.jct.2018.05.027):
Numbers after ± are expanded uncertainties.

Tests used:
[1] = Liquid
[2] = xn = mol fraction of the nth substance listed; settings: Liquid, Vibrating wire viscometry, x1 = 1

CCC(C)O (centres undefined) [butan-2-ol]
viscosity [mPa·s], [1]
Settings	293.15 K	298.15 K	313.15 K	333.15 K	353.15 K
100 kPa, Concentric cylinders viscometry	3.744 ± 0.041	–	1.832 ± 0.021	1.011 ± 0.012	0.6218 ± 0.0083
100 kPa, Vibrating wire viscometry	3.767 ± 0.06	3.102 ± 0.049	1.839 ± 0.03	1.007 ± 0.017	0.6198 ± 0.011
1000 kPa, Vibrating wire viscometry	3.813 ± 0.06	3.123 ± 0.05	1.862 ± 0.03	1.023 ± 0.017	0.6273 ± 0.011
5000 kPa, Vibrating wire viscometry	3.978 ± 0.063	3.28 ± 0.052	1.947 ± 0.031	1.078 ± 0.018	0.6577 ± 0.012
10000 kPa, Vibrating wire viscometry	4.235 ± 0.067	3.462 ± 0.055	2.041 ± 0.033	1.133 ± 0.019	0.6999 ± 0.012
20000 kPa, Vibrating wire viscometry	4.696 ± 0.074	3.873 ± 0.061	2.262 ± 0.036	1.254 ± 0.021	0.7717 ± 0.013
30000 kPa, Vibrating wire viscometry	5.159 ± 0.082	4.253 ± 0.067	2.503 ± 0.04	1.372 ± 0.023	0.8354 ± 0.014
40000 kPa, Vibrating wire viscometry	5.693 ± 0.09	4.697 ± 0.074	2.734 ± 0.044	1.491 ± 0.024	0.9088 ± 0.015
50000 kPa, Vibrating wire viscometry	6.274 ± 0.099	5.142 ± 0.081	2.99 ± 0.048	1.624 ± 0.026	0.9898 ± 0.017
60000 kPa, Vibrating wire viscometry	6.831 ± 0.11	5.553 ± 0.088	3.237 ± 0.051	1.759 ± 0.029	1.07 ± 0.018
70000 kPa, Vibrating wire viscometry	7.377 ± 0.12	6.044 ± 0.095	3.558 ± 0.056	1.905 ± 0.031	1.151 ± 0.019
80000 kPa, Vibrating wire viscometry	8.056 ± 0.13	6.544 ± 0.1	3.841 ± 0.061	2.081 ± 0.034	1.242 ± 0.021
100000 kPa, Vibrating wire viscometry	9.598 ± 0.15	7.646 ± 0.12	4.456 ± 0.071	2.427 ± 0.039	1.444 ± 0.024
120000 kPa, Vibrating wire viscometry	11.31 ± 0.18	9.053 ± 0.14	5.179 ± 0.082	2.716 ± 0.043	1.644 ± 0.027
140000 kPa, Vibrating wire viscometry	13.38 ± 0.21	10.43 ± 0.16	5.933 ± 0.094	3.099 ± 0.049	1.845 ± 0.03

CCC(C)O (centres undefined) [butan-2-ol] + Cc1ccc(C)c(C)c1
viscosity [mPa·s], [2]
Settings	293.15 K	298.15 K	313.15 K	333.15 K	353.15 K
100 kPa	3.767 ± 0.06	3.102 ± 0.049	1.839 ± 0.03	1.007 ± 0.017	0.6198 ± 0.011
1000 kPa	3.813 ± 0.06	3.123 ± 0.05	1.862 ± 0.03	1.023 ± 0.017	0.6273 ± 0.011
5000 kPa	3.978 ± 0.063	3.28 ± 0.052	1.947 ± 0.031	1.078 ± 0.018	0.6577 ± 0.012
10000 kPa	4.235 ± 0.067	3.462 ± 0.055	2.041 ± 0.033	1.133 ± 0.019	0.6999 ± 0.012
20000 kPa	4.696 ± 0.074	3.873 ± 0.061	2.262 ± 0.036	1.254 ± 0.021	0.7717 ± 0.013
30000 kPa	5.159 ± 0.082	4.253 ± 0.067	2.503 ± 0.04	1.372 ± 0.023	0.8354 ± 0.014
40000 kPa	5.693 ± 0.09	4.697 ± 0.074	2.734 ± 0.044	1.491 ± 0.024	0.9088 ± 0.015
50000 kPa	6.274 ± 0.099	5.142 ± 0.081	2.99 ± 0.048	1.624 ± 0.026	0.9898 ± 0.017
60000 kPa	6.831 ± 0.11	5.553 ± 0.088	3.237 ± 0.051	1.759 ± 0.029	1.07 ± 0.018
70000 kPa	7.377 ± 0.12	6.044 ± 0.095	3.558 ± 0.056	1.905 ± 0.031	1.151 ± 0.019
80000 kPa	8.056 ± 0.13	6.544 ± 0.1	3.841 ± 0.061	2.081 ± 0.034	1.242 ± 0.021
100000 kPa	9.598 ± 0.15	7.646 ± 0.12	4.456 ± 0.071	2.427 ± 0.039	1.444 ± 0.024
120000 kPa	11.31 ± 0.18	9.053 ± 0.14	5.179 ± 0.082	2.716 ± 0.043	1.644 ± 0.027
140000 kPa	13.38 ± 0.21	10.43 ± 0.16	5.933 ± 0.094	3.099 ± 0.049	1.845 ± 0.03
